For assay [1], the system named is DIM2. As to the kind of experiment: In vitro DNA methylation assay: effect of HP1 and H3 peptides on DIM2 activity. Set-up: DNA methylation activity of DIM2 in presence of HP1, WT or W98A: unit not given beside the values. In kind it is biochemical, Neurospora Crassa. Conditions: for effect on DNA methylation activity of DIM2 (in words): 36-mer DNA duplex, 1.0 µM peptide and/or 2 µM HP1; for DNA methylation activity of DIM2 in presence of HP1, WT or W98A: Sup Fig. 1e, (CTA)12/(TAG)12 DNA duplex, 1.0 µM DIM2, 2 µM HP1, 30 °C, 30 min, pH 8.0. The protocol:
In vitro DNA methylation assay was performed in a 20-µL reaction mixture. For the substrate specificity assay, the following DNA duplexes were used as substrates: CG DNA (Upper strand: 5’-[…]-3’), hemimethylated CG DNA (Upper strand: 5’-TAAATTTXGATTAATAAT-3’, X = 5-methylcytosine; Lower strand: 5’-[…] -3’), CHG DNA (Upper strand: 5’-[…]-3’), and CHH DNA (Upper strand: 5’-[…]-3’). The reaction mixture contains 0.25 µM DIM2, 1.0 µM DNA duplex, 1.0 µM synthesized H3K9me3 peptide (residues 1-24 of H3 plus a C-terminal tryptophan), 0.5 µM HP1, and 0.56 µM S-adenosyl-L-[methyl-^3H] methionine with a specific activity of 18 Ci/mmol (PerkinElmer) in buffer containing 50 mM Tris-HCl (pH 8.0), 100 mM NaCl, 0.05% β-mercaptoethanol, 5% glycerol, and 200 µg/mL BSA. For the rest of the DNA methylation assay, each reaction mixture contains 1.0 µM DIM2, […] methionine with a specific activity of 18 Ci/mmol (PerkinElmer) in buffer containing 50 mM Tris-HCl (pH 8.0), 100 mM NaCl, 0.05% β-mercaptoethanol, 5% glycerol, and 200 µg/mL BSA. In addition, 1.0 µM synthesized H3K9me3 or H3K9me0 peptide (residues 1-24 of H3 plus a C-terminal tryptophan) and/or 2 µM HP1 protein was included to evaluate the effect of H3 and HP1 regulation. The reaction mixture was incubated at 30 °C for 30 min, unless indicated otherwise, before being quenched by the addition of 5 µL of 10 mM cold SAM. After the reaction, 8 μL of the mixtures was loaded onto Hybond N nylon membrane (GE Healthcare), which was left to dry out at room temperature. The membrane was subsequently washed with 0.2 M ammonium bicarbonate (pH 8.2) two times (20 min per time), deionized water (20 min) once, and 95% ethanol (5 min) once. After air dried, the membrane carrying each sample was transferred into a vial containing 3 mL scintillation buffer (Fisher). The tritium scintillation was measured and recorded by a Beckman LS6500 counter. Each the reaction was repeated three times.

The test system of assay [2] is (CTA)12/(TAG)12 36-mer DNA duplex. As to the kind of experiment: In vitro DNA methylation assay of DIM2 (WT or mutant). In kind it is biochemical. Set-up: DNA methylation activity: unit not given here. The note with it: 30 min.
Assay [3] relates to HP1. As to the kind of experiment: Size-exclusion chromatography of DIM2-HP1 complex. In kind it is binding, Neurospora Crassa. The note with it: 1.0 µM DIM2 and/or 2.5 µM HP1, Superdex 200 increase 10/300 GL, pH 7.5. Here is the method: For size-exclusion chromatography analysis, 400 µL of the sample mixture containing 1.0 µM DIM2 and/or 2.5 µM HP1 was loaded onto Superdex 200 increase 10/300 GL column (GE Healthcare) and eluted at a flow rate of 0.5 mL/min, in the buffer containing 20 mM Tris-HCl (pH 7.5), 100 mM NaCl, 5% glycerol, and 5 mM DTT. The proteins in each fraction were then visualized by SDS-PAGE.

In assay [4] the target is DIM2, W261A/W581A. Briefly: ITC binding of H3K9me3 peptide, DIM2 W261A/W581A. Set-up: species or system Neurospora Crassa. The note with it: 7 °C, pH 7.5, NDB, no detectable binding. Here is the method:
(§1) ITC measurements were performed using a MicroCal iTC200 instrument (GE Healthcare). To measure the bindings between proteins and H3K9me3 peptide, 0.04–0.05 mM DIM2, WT or mutant (W261A, W581A, or W261A/W581A), DIM2 RFTS domain, or HP1, WT or mutant (W98A), was titrated with 0.5 mM histone peptide at 7 °C. Prior to the titration, both peptide and protein samples were subjected to overnight dialysis against buffer containing 20 mM Tris-HCl (pH 7.5), 100 mM NaCl, and 1 mM β-mercaptoethanol. Buffer to buffer titration was performed to ensure no abnormality of baseline. Analyses of all data were performed with MicroCal Origin software, fitted with single-site binding mode.

Assay [5] has as its system DIM2, W581A. Briefly: ITC binding of H3K9me3 peptide, DIM2 W581A. Also noted: species or system Neurospora Crassa. The protocol: as §1
Assay [6] deals with DIM2, W261A. Briefly: ITC binding of H3K9me3 peptide, DIM2 W261A. Also noted: species or system Neurospora Crassa. The protocol: as §1

In the case of “HP1WT: Neurospora Crassa HP1 (residues 1-266; Q1K612)”, the “effect on DNA methylation activity of DIM2 (in words)” value (shortened to “effect on DNA methylation activity”) in assay [1] is recorded as “slight but notable activity of DIM2”. The entries for the “DNA methylation activity of DIM2 in presence of HP1, WT or W98A” value in assay [1] (replicate 1), in assay [1] (replicate 2) and in assay [1] (replicate 3) were 22.922, 23.125 and 22.99, respectively.

On to “DIM2WT: Neurospora Crassa DIM2 (NCBI accession no. XP_959891.1) (residues 1-1242)”, for which the “DNA methylation activity of DIM2 (in words)” value in assay [2] (1.0 µM DIM2, 30 °C, pH 8.0) is “no detectable activity”. The DNA methylation activity is reported as -0.021 in assay [2] (Fig. 1b, 1.0 µM DIM2, 1.0 µM DNA duplex, 0.56 µM [methyl-3H]SAM, 1.0 µM H3 peptide and/or 2 µM HP1, pH 8.0, 30 °C, tritium scintillation, replicate 1); -0.01 in assay [2] (Fig. 1b, 1.0 µM DIM2, 1.0 µM DNA duplex, 0.56 µM [methyl-3H]SAM, 1.0 µM H3 peptide and/or 2 µM HP1, pH 8.0, 30 °C, tritium scintillation, replicate 2); -0.04 in assay [2] (Fig. 1b, 1.0 µM DIM2, 1.0 µM DNA duplex, 0.56 µM [methyl-3H]SAM, 1.0 µM H3 peptide and/or 2 µM HP1, pH 8.0, 30 °C, tritium scintillation, replicate 3); 20.908 in assay [2] (Fig. 2g, in the presence of HP1 (2 µM) and H3_1-24K9me3 peptide (1.0 µM), 1.0 µM DIM2, 30 °C, pH 8.0, replicate 1); 20.644 in assay [2] (Fig. 2g, in the presence of HP1 (2 µM) and H3_1-24K9me3 peptide (1.0 µM), 1.0 µM DIM2, 30 °C, pH 8.0, replicate 2); 18.328 in assay [2] (Fig. 2g, in the presence of HP1 (2 µM) and H3_1-24K9me3 peptide (1.0 µM), 1.0 µM DIM2, 30 °C, pH 8.0, replicate 3). The DNA methylation activity in assay [2] (Fig. 5f, DNA binding-associated mutants, 1.0 µM DIM2, 1.0 µM DNA duplex, 30 °C, pH 8.0, replicate 1) is listed as 14.337; in assay [2] (Fig. 5f, DNA binding-associated mutants, 1.0 µM DIM2, 1.0 µM DNA duplex, 30 °C, pH 8.0, replicate 2) it was 13.213; in assay [2] (Fig. 5f, DNA binding-associated mutants, 1.0 µM DIM2, 1.0 µM DNA duplex, 30 °C, pH 8.0, replicate 3), 13.147; in assay [2] (Fig. 3h, in the presence of HP1 (2 µM) and H3_1-24K9me3 peptide (1.0 µM), 1.0 µM DIM2, 30 °C, pH 8.0, replicate 1) it was 22.922; in assay [2] (Fig. 3h, in the presence of HP1 (2 µM) and H3_1-24K9me3 peptide (1.0 µM), 1.0 µM DIM2, 30 °C, pH 8.0, replicate 2), 23.125; in assay [2] (Fig. 3h, in the presence of HP1 (2 µM) and H3_1-24K9me3 peptide (1.0 µM), 1.0 µM DIM2, 30 °C, pH 8.0, replicate 3), 22.99. Also, the DNA methylation activity in assay [2] (Fig. 6d, H3_1-24K9me3 binding-associated mutants, 1.0 µM DIM2, 1.0 µM DNA duplex, 30 °C, pH 8.0, replicate 1) is reported as 19.42; in assay [2] (Fig. 6d, H3_1-24K9me3 binding-associated mutants, 1.0 µM DIM2, 1.0 µM DNA duplex, 30 °C, pH 8.0, replicate 2), 16.017; in assay [2] (Fig. 6d, H3_1-24K9me3 binding-associated mutants, 1.0 µM DIM2, 1.0 µM DNA duplex, 30 °C, pH 8.0, replicate 3), 17.874. Also, in assay [3], the “DIM2-HP1 complex formation (in words)” value is “co-migration”.

For “H3_1-24K9me0: H3K9me0 peptide (residues 1-24 of H3 plus a C-terminal tryptophan), unmethylated H3 K9”, in assay [1], the “effect on DNA methylation activity” value is listed as “failed to synergize with HP1 to boost the DNA methylation activity of DIM2”.

On to “H31-24K9me3: synthesized H3K9me3 peptide (residues 1-24 of H3 plus a C-terminal tryptophan)”, for which, in assay [1], the “effect on DNA methylation activity” value was “failed to activate DIM2 appreciably”. Besides, the Kd entry is “NDB” in assay [4] and “complete abolishment” in assay [4] (listed as H3K9me3 peptide). Besides, the “reduction of peptide-binding affinity vs WT DIM2” value in assay [5] was roughly 10 fold. For the same substance, the “enhanced binding affinity vs WT DIM2” value in assay [6] (W261A vs WT) is on record as ~ 2.3 fold. The “BAH1-H3K9me3 binding stronger than RFTS-H3K9me3 binding by” value in assay [6] (in the absence of DNA) is ~ 24 fold.

The values above are taken from paper PMC11315935, “Multi-layered heterochromatin interaction as a switch for DIM2-mediated DNA methylation” (Nature Communications, 2024).
